Results reported in the SangsterLogP compilation.

Assay: method code SF-AS, from DOI: 10.1021/jm00305a054, PMID: 5812219

SMILES | logP
CCCCCC(=O)NC(=O)C1CCC1 | 0.89
CCCCCCCCCCCC(=O)NC(=O)C1CCC1 | 1.28
O=CNC(=O)C1CCC1 | -0.7
CCCCCCCC(=O)NC(=O)C1CCC1 | 0.85
CCCCC(=O)NC(=O)C1CCC1 | 0.75

The next lines start with the values.

logP | SMILES
0.26 | CC(C)C(=O)NC(=O)C1CCC1
0.41 | CCCC(=O)NC(=O)C1CCC1
0.53 | CC(C)(C)C(=O)NC(=O)C1CCC1
-0.4 | CC(=O)NC(=O)C1CCC1
0.48 | CC(C)CC(=O)NC(=O)C1CCC1
